Target: Cell division control protein 42 homolog (Homo sapiens) (UniProt P60953)
Experiment: wild-type Cdc42 nucleotide-binding inhibitors, SAR follow-up, biochemical, bead-based multiplex flow cytometry, oxadiazole series (AID 2037)
Conditions: GST-Cdc42 beads, Bodipy-FL-GTP binding, Ki calculated from EC50

Cell division control protein 42 homolog (Homo sapiens), sequence (P60953 whole entry, looked up): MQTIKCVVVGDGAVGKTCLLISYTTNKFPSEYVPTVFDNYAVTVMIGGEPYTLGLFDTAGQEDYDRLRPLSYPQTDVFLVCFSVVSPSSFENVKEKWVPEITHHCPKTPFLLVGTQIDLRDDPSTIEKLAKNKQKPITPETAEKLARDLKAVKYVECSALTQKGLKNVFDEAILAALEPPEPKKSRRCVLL

Cc1cccc(-c2noc(CCC(=O)N3CCN(c4cc(C)ccc4C)CC3)n2)c1
Ki: 220 nM

COc1ccc(-c2noc(CCC(=O)N3CCN(c4cc(C)ccc4C)CC3)n2)cc1
Ki: 580 nM

Cc1ccc(C)c(N2CCN(C(=O)CCc3nc(-c4ccccc4Br)no3)CC2)c1
Ki: 490 nM

Cc1ccc(C)c(N2CCN(C(=O)CCc3nc(-c4ccc(C(F)(F)F)cc4)no3)CC2)c1
Ki: 680 nM

COc1ccccc1-c1noc(CCC(=O)N2CCN(c3cc(C)ccc3C)CC2)n1
Ki: 330 nM

Cc1ccc(C)c(N2CCN(C(=O)CCc3nc(-c4ccc(F)cc4)no3)CC2)c1
Ki: 80 nM

Cc1ccc(C)c(N2CCN(C(=O)CCc3nc(-c4ccc(Cl)cc4)no3)CC2)c1
Ki: 360 nM

COc1ccc(-c2noc(CCC(=O)N3CCN(c4cccc(C(F)(F)F)c4)CC3)n2)cc1
Ki: 410 nM

Cc1ccc(C)c(N2CCN(C(=O)CCc3nc(-c4ccc(Br)cc4)no3)CC2)c1
Ki: 340 nM

COc1cccc(-c2noc(CCC(=O)N3CCN(c4cc(C)ccc4C)CC3)n2)c1
Ki: 590 nM

COc1ccc(-c2noc(CCC(=O)N3CCN(c4ccc(C)cc4)CC3)n2)cc1
Ki: 120 nM

COc1ccc(-c2noc(CCC(=O)N3CCN(c4ccccc4Cl)CC3)n2)cc1
Ki: 170 nM

COc1ccc(-c2noc(CCC(=O)N3CCC(c4cc(C)ccc4C)CC3)n2)cc1
Ki: 300 nM

Cc1ccc(C)c(N2CCN(C(=O)CCc3nc(-c4cccc(Br)c4)no3)CC2)c1
Ki: 450 nM

COc1ccc(-c2noc(CCCC(=O)N3CCN(c4cc(C)ccc4C)CC3)n2)cc1
Ki: 1310 nM

COc1ccc(-c2coc(CCC(=O)N3CCN(c4cc(C)ccc4C)CC3)n2)cc1
Ki: 480 nM

COc1ccc(-c2noc(CCC(=O)N3CCN(c4ccccc4C)CC3)n2)cc1
Ki: 360 nM

Cc1ccc(C)c(N2CCN(C(=O)CCc3nc(-c4cccc(Cl)c4)no3)CC2)c1
Ki: 460 nM

Cc1ccc(C)c(N2CCN(C(=O)CCc3nc(-c4ccc(N(C)C)cc4)no3)CC2)c1
Ki: 250 nM

Cc1ccc(C)c(N2CCN(C(=O)CCc3nc(-c4ccccc4)no3)CC2)c1
Ki: 850 nM

COc1ccc(-c2noc(CCC(=O)N3CCN(c4ccccc4Br)CC3)n2)cc1
Ki: 490 nM

COc1ccc(-c2noc(CCC(=O)N3CCN(c4ccc(OC)cc4)CC3)n2)cc1
Ki: 100 nM

COc1ccc(-c2noc(CCC(=O)N3CCN(c4cccc(OC)c4)CC3)n2)cc1
Ki: 2550 nM

COc1ccc(-c2noc(CCC(=O)N3CCN(c4ccccc4C(F)(F)F)CC3)n2)cc1
Ki: 420 nM

Cc1ccc(C)c(N2CCN(C(=O)CCc3nc(-c4ccccc4C(F)(F)F)no3)CC2)c1
Ki: 1050 nM

Cc1ccc(-c2noc(CCC(=O)N3CCN(c4cc(C)ccc4C)CC3)n2)cc1
Ki: 920 nM

COc1ccc(-c2cccc(CCC(=O)N3CCN(c4cc(C)ccc4C)CC3)c2)cc1
Ki: 780 nM

COc1ccc(-c2noc(CCC(=O)N3CCN(c4ccccc4F)CC3)n2)cc1
Ki: 140 nM

COc1ccc(-c2noc(CCC(=O)N3CCN(c4cccc(C)c4C)CC3)n2)cc1
Ki: 240 nM
